{"source": "a melting point compilation (Tetko et al.)", "data": [{"units": {"melting point": "°C"}, "values": [{"smiles": "O=CC(F)(F)C(F)(F)C(F)(F)C(F)(F)C(F)(F)C(F)(F)C(F)(F)C(F)(F)C(F)(F)C(F)(F)F", "melting point": "70 to 72"}, {"smiles": "Cc1ccc(NC(=O)C=Cc2ccc(C=CC(=O)Nc3ccc(C)cc3)cc2)cc1", "melting point": 315}, {"smiles": "CC(=O)Nc1ccc(C#N)cc1C(F)(F)F", "melting point": "169 to 171"}, {"smiles": "O=[N+]([O-])C=Cc1c(F)cccc1Cl", "melting point": 63}, {"smiles": "O=[N+]([O-])c1cc([N+](=O)[O-])cc(C(F)(F)F)c1", "melting point": 51}, {"smiles": "O=C(Nc1ccccc1)OCc1c([N+](=O)[O-])cccc1[N+](=O)[O-]", "melting point": 138}, {"smiles": "Oc1ccccc1N1CCNCC1", "melting point": 125}, {"smiles": "COC(=O)c1cc(C)c(Br)s1", "melting point": "35 to 37"}, {"smiles": "Clc1ccc(C=NNc2ncnc3c2cnn3-c2ccccc2)cc1", "melting point": "280 to 282"}, {"smiles": "Ic1cccc2nsnc12", "melting point": "96 to 97"}, {"smiles": "CCCC(=O)C=Cc1ccc(O)c(O)c1", "melting point": 132}, {"smiles": "CC1(c2ccccc2)CC(C(=NNC(N)=S)c2cc3ccccc3o2)C1", "note": "(centres undefined)", "melting point": "205 to 207"}, {"smiles": "CN(C)c1ccc(O)cc1", "melting point": 77}, {"smiles": "Ic1cc(I)c(I)c(I)c1I", "melting point": 172}, {"smiles": "NCCCNC1CCCCC1", "melting point": -18}, {"smiles": "CC1=NN(c2ccccc2)C(=O)C1C(c1ccc(O)cc1)C1C(=O)N(c2ccccc2)N=C1C", "note": "(centres undefined)", "melting point": 241}, {"smiles": "CC(/N=N/c1cc(Cl)cc(Cl)c1O)=C(/C(=O)N1CCOCC1)N1CCOCC1", "melting point": 76.5}, {"smiles": "CC12CCC(CCC1=O)C2(C)C", "note": "(centres undefined)", "melting point": 193}, {"smiles": "COc1ccc(C(=O)O)cc1OC1CCCC1", "melting point": "164 to 166"}, {"smiles": "CNC(=O)ON=C(C)SC", "melting point": 78}, {"smiles": "Fc1cc(CCl)c2c(c1)COCO2", "melting point": "78 to 80"}, {"smiles": "O=C(Nc1ccccc1)OCC1(COC(=O)Nc2ccccc2)CCCC1", "melting point": 152}, {"smiles": "Fc1nccc(Br)c1Br", "melting point": 76}, {"smiles": "CC1=C(CCO)SC2=Nc3nc(C)ncc3CN21", "melting point": 229}, {"smiles": "ClC1=C(Cl)C(Cl)(Cl)C(Cl)(Cl)C1(Cl)Cl", "melting point": 40}, {"smiles": "O=C(O)C(F)(F)C(F)(F)C(F)(F)C(F)(F)C(F)(F)C(F)F", "melting point": 34}, {"smiles": "Cc1ncc(C(=O)O)c(-c2ccccc2)n1", "melting point": "210 to 211"}, {"smiles": "CC(=O)c1ccc2c(c1)CCO2", "melting point": "62 to 64"}, {"smiles": "CC1CCC2C(C)C(=O)OCC12", "note": "(centres undefined)", "melting point": 60.5}, {"smiles": "O=C(C=NO)Nc1ccccc1", "melting point": 175}, {"smiles": "O=C(O)c1cnn(-c2ccc(Cl)cc2)c1C(F)(F)F", "melting point": "137 to 138"}, {"smiles": "N=C(N)NC(=N)Nc1ccccc1", "melting point": 143}, {"smiles": "NC(=O)c1cc(F)ccc1F", "melting point": "114 to 116"}, {"smiles": "Cc1ccc(S(=O)(=O)NC(Cc2ccccc2)C(=O)CCl)cc1", "note": "(centres undefined)", "melting point": "105 to 109"}, {"smiles": "NNC(=O)c1ccsc1", "melting point": "126 to 128"}, {"smiles": "O=C(O)c1cc(=O)cc(C(=O)O)o1", "melting point": 262}, {"smiles": "S=P(N1CC1)(N1CC1)N1CC1", "melting point": "54 to 57"}, {"smiles": "CCOC(=O)c1c[nH]c(=O)nc1C(F)(F)F", "melting point": 165}, {"smiles": "O=Cc1cccn1-c1ccc(I)cc1", "melting point": "98 to 100"}, {"smiles": "c1ccc2c(c1)ccc1nncn12", "melting point": "175 to 177"}, {"smiles": "CC(C)Oc1ccc(C(=O)NS(=O)(=O)c2ccc(N)cc2)cc1", "melting point": 172}, {"smiles": "COC(=O)c1c(C)n[nH]c1C", "melting point": 83}, {"smiles": "CC(=O)OC1(C(C)=O)CCC2C3C=C(C)C4=CC(=O)CCC4(C)C3CCC21C", "note": "(centres undefined)", "melting point": 214}, {"smiles": "CC(=O)Oc1cccc(I)c1", "melting point": 38}, {"smiles": "CC(=CC=Cc1ccccc1)C(=O)OC(=O)C(C)=CC=Cc1ccccc1", "melting point": "112 to 113"}, {"smiles": "O=[N+]([O-])c1ccccc1SCl", "melting point": 74}, {"smiles": "COC(=O)c1c(P(c2ccccc2)c2ccccc2)ccc2ccccc12", "melting point": 108}, {"smiles": "O=C1C=C(Cl)C(=O)C(Cl)=C1", "melting point": 123}, {"smiles": "CCCCCCCCCCCCCCCCCBr", "melting point": 32}, {"smiles": "O=Cc1c(-c2ccc(Cl)cc2)[nH]c2ccccc12", "melting point": "257 to 258"}, {"smiles": "CN1Cc2c(N)cccc2C(c2ccccc2)C1", "note": "(centres undefined)", "melting point": 179}, {"smiles": "NS(=O)(=O)c1ccc(F)c2nonc12", "melting point": "144 to 146"}, {"smiles": "Cn1nc(O)cc1C(F)(F)F", "melting point": "114 to 115"}, {"smiles": "O=C(Nc1ccccc1)Nc1ccnc(Cl)c1", "melting point": 167}, {"smiles": "O=S(=O)(Cl)Cc1ccc(Cl)cc1", "melting point": 95}, {"smiles": "Cc1cc(C(F)(F)F)n2nc(N)c(/N=N/c3ccccc3Cl)c2n1", "melting point": 238}, {"smiles": "COC(=O)c1ccccc1S(=O)(=O)NC(=O)Nc1nc(C)cc(C)n1", "melting point": 204}, {"smiles": "Cc1ccc(S(=O)(=O)c2ncsc2SCC(=O)c2ccc(Cl)cc2)cc1", "melting point": "212 to 213"}, {"smiles": "Nc1cccnc1Br", "melting point": 77}, {"smiles": "O=C(c1ccccc1)c1ccccc1N=Nc1ccccc1C(=O)c1ccccc1", "melting point": 205}, {"smiles": "CCN(CC)c1ccccc1C", "melting point": -60}, {"smiles": "O=C(O)c1cc(C(F)(F)F)ccc1N1CCOCC1", "melting point": "175 to 177"}, {"smiles": "OCCCCCCCCCCCCCCO", "melting point": 85.8}, {"smiles": "CC(=O)c1sc(-c2ccc(C(C)(C)C)cc2)cc1N", "melting point": "179 to 181"}, {"smiles": "O=C1C=CC(=O)N1c1cccc(N2C(=O)C=CC2=O)c1", "melting point": "198 to 204"}, {"smiles": "OCCN(CCO)CCc1ccc(COc2ccccc2)cc1", "melting point": 83}, {"smiles": "O=[N+]([O-])c1cc(N=C=S)ccc1Cl", "melting point": 66}, {"smiles": "CCC(Oc1c(I)cc(I)cc1I)C(=O)O", "note": "(centres undefined)", "melting point": 124}, {"smiles": "NCCCO", "melting point": 11}, {"smiles": "C=CCC(C(=O)NC(N)=O)C(C)C", "note": "(centres undefined)", "melting point": 194}, {"smiles": "COc1ccc2c(c1)C(=O)C2", "melting point": 55}, {"smiles": "CCCCCCCCN(C)CCCCCCCC", "melting point": -30.1}, {"smiles": "N#Cc1ccncc1Br", "melting point": 93}, {"smiles": "CON=C(C(=O)NC1C(=O)N2C(C(=O)OCOC(=O)C(C)(C)C)=C(C=Cc3scnc3C)CSC12)c1csc(N)n1", "note": "(centres undefined)", "melting point": 128}, {"smiles": "NCC(O)COc1ccccc1", "note": "(centres undefined)", "melting point": 146}, {"smiles": "CC1(C)OC2(C)CCC1C(=O)OC2(c1ccccc1)c1ccccc1", "note": "(centres undefined)", "melting point": 134}, {"smiles": "COc1ccc([N+](=O)[O-])cc1C(=O)O", "melting point": 157}, {"smiles": "CCCCCCCCCCCCCCCC(=O)OC1CCC2(C)C(=CCC3C2CCC2(C)C(C(C)CCCC(C)C)CCC32)C1", "note": "(centres undefined)", "melting point": "75 to 77"}, {"smiles": "CC(=O)Nc1ccc(Cl)cc1C", "melting point": "136 to 138"}, {"smiles": "COC1(C)OC(CNc2ccc(S(C)(=O)=O)cc2)C(CNc2ccc(S(C)(=O)=O)cc2)OC1(C)OC", "note": "(centres undefined)", "melting point": "194 to 195"}, {"smiles": "CC1=C(O)C(=O)C(C(C)C)CC1", "note": "(centres undefined)", "melting point": 83}, {"smiles": "CC1=C(C)C(=O)C=CC1=O", "melting point": 55}, {"smiles": "O=C(O)c1cc2sccc2[nH]1", "melting point": 180}, {"smiles": "CCCCCCCCC(C)CC", "note": "(centres undefined)", "melting point": -58}, {"smiles": "C=C(C)C1CCC(C)CC1O", "note": "(centres undefined)", "melting point": 78}, {"smiles": "Cc1ccc(N)c(Cl)n1", "melting point": "88 to 91"}, {"smiles": "O=C(O)C(=S)Cc1cccc(CC(=S)C(=O)O)c1", "melting point": 85}, {"smiles": "O=C1NCCCN1", "melting point": 265}, {"smiles": "C=C(C)c1ccc(C)c2ccc(C=O)c-2c1", "melting point": 58}, {"smiles": "C[C@@]12C=CC(=O)N1[C@@H](c1ccccc1)CO2", "melting point": "88 to 92"}, {"smiles": "C1=CCNCC1", "melting point": -48}, {"smiles": "Cc1ccc(P(=S)(c2ccc(C)cc2)c2ccc(C)cc2)cc1", "melting point": "185 to 186"}, {"smiles": "C=C1C(=O)C23C(OC)CC4C5(C)CCCC4(COC5)C2C(OC(C)=O)CC1C3O", "note": "(centres undefined)", "melting point": 183}, {"smiles": "CCCCCCNC(=O)COC(=O)c1ccccc1", "melting point": 130}, {"smiles": "C#CCN1C(=O)CN=C(c2ccccc2)c2cc(Cl)ccc21", "melting point": 141}, {"smiles": "O=c1[nH]c2ccc(S(=O)(=O)CCO)cc2o1", "melting point": "207 to 211"}, {"smiles": "Clc1ccccc1-c1nnc(-c2ccccc2Cl)nn1", "melting point": 183}, {"smiles": "CCOC(=O)C1=C(CBr)NC(=O)NC1C", "note": "(centres undefined)", "melting point": 148}, {"smiles": "O=C(O)c1ccc2c(c1)OCCOCCOCCOCCOCCO2", "melting point": "121 to 126"}, {"smiles": "O=C(CBr)c1cc(-c2ccc(Cl)cc2Cl)no1", "melting point": "85 to 87"}, {"smiles": "Fc1ccc(C2(Cn3cncn3)OC2c2ccccc2Cl)cc1", "note": "(centres undefined)", "melting point": 137}, {"smiles": "O=C1C2CCCC1CCC2", "melting point": "153 to 157"}, {"smiles": "C=C1CCC1", "melting point": -135}, {"smiles": "O=C(O)CSCC(=O)NC1CCSC1=O", "note": "(centres undefined)", "melting point": 156}, {"smiles": "CCc1ccc(C(C)=O)cc1", "melting point": -20.6}, {"smiles": "COc1cc2oc(=O)cc(CBr)c2cc1OC", "melting point": 202}, {"smiles": "O=[N+]([O-])c1ccc(Cl)nc1", "melting point": 107}, {"smiles": "CC(=O)C=CC1C(C)=CCCC1(C)C", "note": "(centres undefined)", "melting point": "< 25"}, {"smiles": "COC[C@H]1CCCN1C(=S)SCC(=O)c1ccc(Br)cc1", "melting point": 89.5}, {"smiles": "Cc1nccnc1O", "melting point": 153}, {"smiles": "CCOC(=O)CC(=O)C(C)C", "melting point": -9}, {"smiles": "N=C(N)NC(=N)NCCc1ccccc1", "melting point": 176}, {"smiles": "Fc1ccc(-c2ccc(Br)cc2)cc1", "melting point": "95 to 96"}, {"smiles": "COc1cccc(OC)c1P(c1c(OC)cccc1OC)c1c(OC)cccc1OC", "melting point": 155}, {"smiles": "CCOC(=O)N1CCNCC1", "melting point": 120}, {"smiles": "O=S(=O)(Cl)c1ccc(Br)s1", "melting point": 41}, {"smiles": "CCOC(=O)C1C(c2ccc(F)cc2)C(C(=O)OCC)C(O)(C(F)(F)F)NC1(O)C(F)(F)F", "note": "(centres undefined)", "melting point": 84}, {"smiles": "CCNc1cc(O)ccc1C", "melting point": 88}, {"smiles": "c1ccc(C2CCNCC2)cc1", "melting point": 60.5}, {"smiles": "CC12CCC(C(=O)O)(OC1=O)C2(C)C", "note": "(centres undefined)", "melting point": 200}, {"smiles": "CCCCCCCCCCOc1ccc(C(C)=O)cc1", "melting point": "35 to 37"}, {"smiles": "O=C(O)c1cc(Br)c(Br)o1", "melting point": 171}, {"smiles": "Clc1cc(Cl)c2c(c1)oc1cc(Cl)cc(Cl)c12", "melting point": 207}, {"smiles": "Cn1c2ccccc2n2c(=O)c3cccnc3c(C#N)c12", "melting point": "292 to 293"}, {"smiles": "Clc1ccc2c(c1)Oc1cc(Cl)c(Cl)c(Cl)c1O2", "melting point": 172}, {"smiles": "CCOC(=O)C1=C(C)NC(=O)NC1C", "note": "(centres undefined)", "melting point": "189 to 190"}, {"smiles": "O=C(C1=NOC2C(=O)N(c3cc(Cl)ccc3Cl)C(=O)C12)c1ccccc1", "note": "(centres undefined)", "melting point": 185}, {"smiles": "O=C(O)c1cccc(-c2nccs2)c1", "melting point": "160 to 162"}, {"smiles": "CC(=O)OC(OC(C)=O)c1ccc2c(c1[N+](=O)[O-])C(=O)c1c(Cl)c(Cl)c(Cl)c(Cl)c1C2=O", "melting point": 250}]}]}
